Reference: patent US5817640A (Gensia Pharmaceuticals, priority 1995, dated 1998)

Tested on: patients undergoing coronary artery bypass graft (CABG) surgery
Assay: Incidence of clinical outcomes, Phase 3 CABG trial
Format: in vivo, human
Conditions: for Incidence of myocardial infarction (ECG and CK-MB): placebo 4.7%; for Myocardial infarction (ECG and CK-MB), number of patients: placebo 10 of 211; for Cardiac death, number of patients: placebo 3 of 212; for Incidence of congestive heart failure: placebo 3.8%; for Life-threatening dysrhythmia, number of patients: placebo 4 of 212; for Incidence of cerebrovascular accident: placebo 4.2%; for Congestive heart failure, number of patients: placebo 8 of 212; for Cerebrovascular accident, number of patients: placebo 9 of 212; for Combined clinical outcomes, number of patients: placebo 29 of 212; for Incidence of cardiac death / Incidence of life-threatening dysrhythmia / Incidence of combined clinical outcomes: placebo […]
[1] = high dose 0.1 mg/kg/min, n=203, p<0.05
[2] = high dose 0.1 mg/kg/min, n=207, NS
[3] = high dose 0.1 mg/kg/min, n=207, p<0.05

## NC(=O)c1ncn([C@@H]2O[C@H](CO)[C@@H](O)[C@H]2O)c1N [AICA riboside, 5-amino-1-β-D-ribofuranosyl-imidazole-4-carboxamide]
[1]
  Incidence of myocardial infarction (ECG and CK-MB): 1.5%
  Myocardial infarction (ECG and CK-MB), number of patients: 3 patients
[2]
  Cardiac death, number of patients: 0 patients
  Incidence of congestive heart failure: 2.9%
  Life-threatening dysrhythmia, number of patients: 3 patients
  Congestive heart failure, number of patients: 6 patients
  Incidence of cardiac death: 0%
  Incidence of life-threatening dysrhythmia: 1.4%
[3]
  Incidence of cerebrovascular accident: 0.5%
  Cerebrovascular accident, number of patients: 1 patients
  Combined clinical outcomes, number of patients: 11 patients
  Incidence of combined clinical outcomes: 5.3%
High dose, p<0.05
  Decrease in incidence of MI vs placebo: 68%
  Decrease in incidence of cerebrovascular accident vs placebo: 88%
  Reduction in incidence of combined outcomes vs placebo: 61%
High dose, placebo 3.3%
  Incidence of all deaths: 0.5%
High dose, placebo 24.1%
  Incidence of myocardial infarction determined by either ECG or CK-MB: 20.8%
Low dose 0.05 mg/kg/min vs placebo
  Combined outcome efficacy of low dose: no statistically significant efficacy
Low dose 0.05 mg/kg/min, n=205
  Incidence of myocardial infarction (ECG and CK-MB): 4.4%
  Myocardial infarction (ECG and CK-MB), number of patients: 9 patients
Low dose 0.05 mg/kg/min, n=214
  Cardiac death, number of patients: 5 patients
  Incidence of congestive heart failure: 2.8%
  Life-threatening dysrhythmia, number of patients: 9 patients
  Incidence of cerebrovascular accident: 0.9%
  Congestive heart failure, number of patients: 6 patients
  Cerebrovascular accident, number of patients: 2 patients
  Combined clinical outcomes, number of patients: 23 patients
  Incidence of cardiac death: 2.3%
  Incidence of combined clinical outcomes: 10.7%
  Incidence of life-threatening dysrhythmia: 4.2%
